From US4471113A, “Prodrugs based on phospholipid-nucleoside conjugates” (priority 1982, dated 1984)
Read-outs that look alike come from different tables or passages of the source. One block for each compound: values may come before it.

Tests used:
[1] = in vivo; cited from earlier work
[2] = tested on: mouse myeloma MPC-11 (subclone 66.2) cells; experiment: In vitro antiproliferative activity against mouse myeloma MPC-11 (subclone 66.2) cell line; type: cell-based
[3] = Solubilization of suspensions by sonication; type: physicochemical; settings: aqueous suspension at room temperature
From the text: In the study of biological activity of the compositions of Examples 1f and II-VII, it was first necessary to prepare solutions at room temperature. Suspensions of the compounds of Examples 1f and II-VII were all subjected to known sonication techniques in order to aid solubilization. […] Finally, the best means of solubilization was achieved by mixing the sample with araCDP-L-dipalmitin prior to sonication. In this fashion, mixtures having ratios (by weight) of the mono- to diphosphate linked derivatives from 1:2 through to 3:1 were made up and such mixtures were used for the in vitro inhibition studies.

[4] = tested on: deaminase enzymes; settings: cited from earlier work; for protection of parent drug from catabolic degradation: lipophilic fatty acid esters; for catabolism via deaminase enzymes: to ineffective metabolites
[5] = in vivo studies; cited from earlier work
[6] = samples made up in 0.9% saline/0.1 mM Tris, pH 7.1, read-out: ED50 (the source's name)
[7] = solvent not stated, read-out: dose required for 50% inhibition of growth of cells in tissue culture (ED50)
[8] = samples made up in H2O, read-out: ED50 (the source's name)

SMILES: O=c1ccn([C@@H]2O[C@H](CO)[C@@H](O)[C@@H]2O)c(=O)[nH]1 [araU, 1-β-D-arabinofuranosyluracial]
- appearance of metabolite in urine [1]: appears rapidly in human urine

- IC50 [2, 6]: 13.1 µM
- IC50 [2, 7]: 15 µM
SMILES: CCCCCCCCCCCCCC(=O)OC[C@H](COP(=O)(O)OP(=O)(O)OC[C@H]1O[C@@H](n2ccc(N)nc2=O)[C@@H](O)[C@@H]1O)OC(=O)CCCCCCCCCCCCC [araCDP-L-dimyristin]

- IC50 [2, 6]: 168 µM
- IC50 [2, 7]: 195 µM
- solubilization by sonication [3]: remained slightly opalescent
SMILES: CCCCCCCCCCCCCCCCCC(=O)OC[C@H](COP(=O)(O)OP(=O)(O)OC[C@H]1O[C@@H](n2ccc(N)nc2=O)[C@@H](O)[C@@H]1O)OC(=O)CCCCCCCCCCCCCCCCC [araCDP-L-distearin, 1-β-D-Arabinofuranosylcytosine-5'-diphosphate-L-1,2-distearin]

- IC50 [2, 6]: 43.9 µM
- IC50 [2, 7]: 62 µM
SMILES: CCCCCCCC/C=C\CCCCCCCC(=O)OC[C@H](COP(=O)(O)OP(=O)(O)OC[C@H]1O[C@@H](n2ccc(N)nc2=O)[C@@H](O)[C@@H]1O)OC(=O)CCCCCCC/C=C\CCCCCCCC [araCDP-L-diolein, 1-β-D-Arabinofuranosylcytosine-5'-diphosphate-L-1,2-diolein]

SMILES: Nc1ccn([C@@H]2O[C@H](COC(=O)C34CC5CC(CC(C5)C3)C4)[C@@H](O)[C@@H]2O)c(=O)n1 [5'-O-adamantoyl-araC]
- protection of parent drug from catabolic degradation [4]: protected the parent drug from catabolic degradation

SMILES: CCCCCCCCCCCCCCCC(=O)OC[C@H]1O[C@@H](n2ccc(N)nc2=O)[C@@H](O)[C@@H]1O [5'-O-palmitoyl-araC]
- protection of parent drug from catabolic degradation [4]: protected the parent drug from catabolic degradation
- therapeutic advantage in vivo [5]: no therapeutic advantages

SMILES: Nc1ncnc2c1ncn2[C@@H]1O[C@H](CO)[C@@H](O)[C@@H]1O [araA, 9-β-D-arabinofuranosyladenine]
- catabolism via deaminase enzymes [4]: rapid catabolism

- IC50 [2, 6]: 42.1 µM
- IC50 [2, 7]: 65 µM
SMILES: CCCCCCCCCCCCCCCC(=O)OC[C@H](COP(=O)(O)OP(=O)(O)OC[C@H]1O[C@@H](n2ccc(N)nc2=O)[C@@H](O)[C@@H]1O)OC(=O)CCCCCCCCCCCCCCC [araCDP-L-dipalmitin]

- IC50 [2, 8]: 5 µM
SMILES: CCCCCCCCCCCCCCCC(=O)OC[C@H](COP(=O)(O)OP(=O)(O)OC[C@H]1O[C@@H](n2ccc3c(N)ncnc32)[C@H](O)[C@@H]1O)OC(=O)CCCCCCCCCCCCCCC [TubercidinDP--L-dipalmitin, Tubercidin-5'-diphosphate-L-1,2-dipalmitin]

SMILES: CCCCCCCCCCCCCCCC(=O)OC[C@H](COP(=O)(O)OC[C@H]1O[C@@H](n2ccc(N)nc2=O)[C@@H](O)[C@@H]1O)OC(=O)CCCCCCCCCCCCCCC [araCMP-L-dipalmitin]
- solubilization by sonication [3]: resisted solubilization even when samples were mixed with several types of detergent prior to sonication

SMILES: CCCCC(=O)OC[C@H]1O[C@@H](n2cnc3c(N)ncnc32)[C@@H](O)[C@@H]1O [5'-O-valeryl-araA]
- protection of parent drug from catabolic degradation [4]: protected the parent drug from catabolic degradation

SMILES: Nc1ccn([C@@H]2O[C@H](CO)[C@@H](O)[C@@H]2O)c(=O)n1 [araC, 1-β-D-arabinofuranosylcytosine]
- catabolism via deaminase enzymes [4]: rapid catabolism
- IC50 [2, 6]: 0.85 µM
- IC50 [2, 8]: 0.99 µM
